Columns and labels:
[1] = Particle size and surface potential of pDNA-encapsulating MENDs, dynamic light scattering (Zetasizer Nano); format: physicochemical; conditions: pDNA MEND, cationic lipid:SOPE:Chol = 3:4:3
Description: A solution of pDNA encoding luciferase gene and protamine (CALBIOCHEM) solution were diluted with 10 mM HEPES buffer to 0.3 mg/mL and […], respectively. While stirring 0.3 mg/mL pDNA (125 μL), 0.24 mg/mL protamine (125 μL) was added dropwise in small portions to prepared an electrostatic complex of protamine and pDNA (N/P ratio=1.2) as a core of the vector. In the method described in the following (2), 10 mM HEPES buffer (pH 5.3) was used and, in the method described in (3), 10 mM HEPES buffer (pH 7.4) was used.
A lipid solution in ethanol was prepared by mixing 5 mM cationic lipid, 5 mM phospholipid and 5 mM cholesterol (Chol) at desired ratios to achieve 165 nmol total lipid in an Eppendorf tube, further adding various PEG lipids (1 mM solution in ethanol) in an amount corresponding to 3 mol % of the total lipid, and adding ethanol to achieve a total volume of 100 μL. While stirring the lipid solution in a vortex mixer, 100 μL of the nucleic acid electrostatic complex (10 mM HEPES; pH 5.3) prepared in [Experimental Example 1] (1) was quickly added, and thereafter 10 mM HEPES buffer (1.8 mL, adjusted to pH 5.3) was added to dilute the mixture to an ethanol concentration of 5%. The mixture was concentrated to about 50 μL by ultrafiltration using Amicon Ultra 4 (Millipore) under centrifugation conditions (room temperature, 2267 rpm, 20 min). Thereafter, it was diluted to 4 mL with 100 mM HEPES buffer (adjusted to pH 7.4), and again concentrated by centrifugation (2267 rpm, 20 min) under room temperature conditions. Finally, it was diluted with 10 mM HEPES buffer (pH 7.4) to a desired lipid concentration.
A solution of each lipid in chloroform (5 mM DOTAP 24.75 μL, 5 mM DOPE 33 μL, 5 mM Chol 24.75 μL) were mixed in a glass test tube at DOTAP:DOPE:Chol=3:4:3 to achieve 412.5 nmol total lipid. Ethanol was added to a total amount of 250 μL, and the mixture was dried under reduced pressure in a desiccator. The solvent was evaporated to give a lipid thin film. To the lipid thin film was added 250 μL of the gene electrostatic complex (in 10 mM HEPES; pH 7.4) prepared in [Experimental Example 1] (1) to a total lipid concentration of 1.65 mM, and the mixture was stood at room temperature for 10 min to allow for hydration, and sonicated by a sonicator (AIWA MEDICAL […] CO., LTD.) for 1 min.
The particle size and the surface potential were measured by the dynamic light scattering method (Zetasizer Nano; Malve Rn). The particle size and the surface potential of the various MENDs prepared by the preparation method of [Experimental Example 1] are shown in Table 3. The charge of B-2 and DODAP at physiological pH was in a preferable mode of −10 to +10 mV, whereas that of B-2-1 was +12.3, which is not less than +10 mV.
(1) MEND having a composition of B-2-4 (Example 4):DOPE:Chol=3:3:4 or B-2-5 (Example 5):POPE:Chol=3:4:3 was prepared according to the method described in [Experimental Example 1] (1) and (2).
The particle size and the surface potential were measured by the dynamic light scattering method (Zetasizer Nano; Malvern). The particle size and the surface potential of the various MENDs prepared by the preparation method of [Experimental Example 1] are shown in Table 4.

HT1080 cells = experiment: Gene expression by MEND (luciferase assay, RLU/mg protein); format: cell-based; conditions: cationic lipid:SOPE:Chol=3:4:3, PEG2000DSG; pDNA 0.4 μg/well, 24 hr
Description: Using B-2 (Example 1), B-2-1 (Comparative Example 1), and DODAP (Comparative Example 2) as cationic lipids, MENDs having a composition of cationic lipid:SOPE:Chol=3:4:3 were prepared by the method described in [Experimental Example 1] (2). For the preparation, PEG2000DSG was used as PEG lipid, and MEND solutions corresponding to 0.55 mM of the lipid concentration were prepared. For cationic MEND, lipids having a composition of DOTAP:DOPE:Chol:=3:4:3 were used, and the cationic MEND was prepared according to the method described in [Experimental Example 1] (3).
HT1080 cells were plated on a 24-well plate at 4×10^4 cells/500 μL/well 24 hr before, various MENDs were diluted with DMEM (FBS 10%+) to a pDNA amount of 0.4 μg/500 μL/well and transfected. 24 hr later, the cells were washed with PBS(−) (500 μL), 1× Lysis buffer was added to each well by 75 μL, and the mixture was stood at −80° C. for 30 min or longer. The frozen 24-well plate was thawed on ice, the cells were detached with a cell scraper, and the total amount thereof was transferred into an Eppendorf tube and centrifuged under the conditions of 15000 rpm, 4° C., 5 min. The supernatant (50 μL) was recovered in a different Eppendorf tube, and used for luciferase assay and BCA assay.
20 μL thereof was mixed with a Luciferase assay substrate (50 μL), and the luciferase activity in a given time was measured by a luminometer. The obtained lysate was diluted 5-fold with DDW to achieve 25 μL total volume. Thereto was added BCA Protein Assay Reagent (200 μL), and the mixture was stood at 37° C. for 30 min. Thereafter, the absorbance at 562 nm was measured, and the protein amount of the sample was calculated from the absorbance of a BSA solution having a known concentration. The luciferase activity (RLU) was adjusted by dividing with protein amount (mg), and the luciferase activity per cell protein amount (RLU/mg protein) was calculated.
Using B-2 (Example 1), B-2-2 (Example 2), and B-2-3 (Example 3) as cationic lipids, MENDs having a composition of cationic lipid:SOPE:Chol=3:4:3 were prepared by the method described in [Experimental Example 1] (2). For the preparation, PEG2000DSG was used as PEG lipid, and MEND solutions corresponding to 0.55 mM of the lipid concentration were prepared. The gene expression was evaluated by the method described in [Example 4] (2).
Using compositions of B-2-4 (Example 4):DOPE:Chol=3:3:4, B-2-5 (Example 5):POPE:Chol=3:3:4, B-2 (Example 1):SOPE:Chol=5:3:2 as lipids, MENDs were prepared according to [Experimental Example 1](1) and (2). For the preparation, PEG2000-DMG was used as PEG lipid, and MEND solutions corresponding to 0.55 mM of the lipid concentration were prepared.
The gene expression activity was evaluated by the method described in [Experimental Example 4] (2).

[2] = Particle size and surface potential of siRNA MENDs prepared by t-BuOH injecting method; format: physicochemical; conditions: siRNA MEND; for PDI / size (nm) / zeta (mV): cationic lipid/cholesterol=70/30, DMG-PEG2000 3%
Description: (§1) A lipid solution in t-BuOH with a composition of cationic lipid/cholesterol=70/30, DMG-PEG2000 3% and a total lipid amount of 3000 nmol/400 μL (7.5 mM) was prepared in a 1.7 mL tube. In a separate 1.7 mL tube, an siRNA solution was prepared by mixing an siRNA aqueous solution containing siRNA (160 μg) and 20 mM malate buffer (pH 4.00, 30 mM NaCl) to total 50 μL. With vigorous stirring of the lipid solution, the siRNA solution was gradually added dropwise, and the mixed solution was taken in a 1 mL syringe. Then, 20 mM malate buffer (pH 4.00, 30 mM NaCl, 2 mL) was added into a 5 mL tube, and the mixed solution was gradually injected with vigorous stirring. Thereafter, the mixture was further diluted with PBS (7 mL) and centrifuged at 1000 g, 30° C. for 10 min in Amicon Ultra-15-100K to a volume of less than 1.5 mL. PBS (15 mL) was added, and the solution was centrifuged again to about 500-1000 μL. Finally, the MEND solution was adjusted by diluting with PBS to the object lipid concentration.
The particle size and surface potential of various MENDs were measured according to the method described in [Experimental Example 2] and the results are shown in Table 6.

Factor VII (FVII) = experiment: Knockdown effect of siRNA-encapsulated MEND prepared by t-BuOH injecting method; format: in vivo, ICR mice; conditions: varying doses of siRNA, tail vein
Description: A MEND solution prepared by the method shown in [Experimental Example 28] was administered to 4-week-old male ICR mice at 3 mg siRNA/kg from the tail vein, and blood was collected 24 hr later. This blood sample was centrifuged at 1000 g, 10 min, 4° C., and the supernatant was recovered to obtain plasma. The amount of Factor VII (FVII) in the plasma was quantified by BIOPHEN FVII CHROMOGENIC ASSAY (HYPHEN BioMed).
as §1
MENDs prepared by the method shown in Experimental Example 32 were administered by a method similar to the method shown in Experimental Example 30 with varying doses of siRNA, and the knockdown effect was evaluated. The results are shown in FIG. 35, FIG. 36, and FIG. 37.

Compound	PDI [1]	size (nm) [1] [nm]	zeta (mV) [1] [mV]	gene expression activity (luciferase activity per cell protein) (HT1080 cells)	PDI [2]	size (nm) [2] [nm]	zeta (mV) [2] [mV]	FVII expression level (knockdown effect) (Factor VII (FVII))	charge at physiological pH [2]
CCCCCCCCCCCCCCCCCC(=O)OCCCN(C)CCSSCCN(C)CCCOC(=O)CCCCCCCCCCCCCCCCC [Example B-2-2]	0.132	134.6	−5.77	inferior to that of B-2, but exceeds that of conventional pH-responsive lipid cationic lipid, DODAP	–	–	–	–	–
CCCCC/C=C\C/C=C\CCCCCCCC(=O)OCCCN(C)CCSSCCN(C)CCCOC(=O)CCCCCCC/C=C\C/C=C\CCCCC [Example B-2-3]	0.091	148.7	−7.97	inferior to that of B-2, but exceeds that of conventional pH-responsive lipid cationic lipid, DODAP	–	–	–	–	–
Cc1c(C)c2c(c(C)c1OC(=O)CCCC(=O)OCCCN(C)CCSSCCN(C)CCCOC(=O)CCCC(=O)Oc1c(C)c(C)c3c(c1C)CCC(C)(CCCC(C)CCCC(C)CCCC(C)C)O3)CCC(C)(CCCC(C)CCCC(C)CCCC(C)C)O2 (stereo not drawn) [TG-C3M]	–	–	–	–	0.13	120	−13.0	–	–
CCN(CCCCOC(=O)CCC(=O)Oc1c(C)c(C)c2c(c1C)CCC(C)(CCCC(C)CCCC(C)CCCC(C)C)O2)CCSSCCN(CC)CCCCOC(=O)CCC(=O)Oc1c(C)c(C)c2c(c1C)CCC(C)(CCCC(C)CCCC(C)CCCC(C)C)O2 (stereo not drawn) [TS-C4E]	–	–	–	–	0.07	118	−9.8	–	–
Cc1c(C)c2c(c(C)c1OC(=O)CCC(=O)OCCCCCN(CCSSCCN(CCCCCOC(=O)CCC(=O)Oc1c(C)c(C)c3c(c1C)CCC(C)(CCCC(C)CCCC(C)CCCC(C)C)O3)C(C)C)C(C)C)CCC(C)(CCCC(C)CCCC(C)CCCC(C)C)O2 (stereo not drawn) [TS-C5P]	–	–	–	–	0.13	125	−6.4	–	–
Cc1c(C)c2c(c(C)c1OC(=O)CCC(=O)OCC1CCCCN1CCSSCCN1CCCCC1COC(=O)CCC(=O)Oc1c(C)c(C)c3c(c1C)CCC(C)(CCCC(C)CCCC(C)CCCC(C)C)O3)CCC(C)(CCCC(C)CCCC(C)CCCC(C)C)O2 (stereo not drawn) [TS-P2C1]	–	–	–	–	0.12	114	−12.2	–	–
Cc1c(C)c2c(c(C)c1OC(=O)CCC(=O)OCC1CCCN(CCSSCCN3CCCC(COC(=O)CCC(=O)Oc4c(C)c(C)c5c(c4C)CCC(C)(CCCC(C)CCCC(C)CCCC(C)C)O5)C3)C1)CCC(C)(CCCC(C)CCCC(C)CCCC(C)C)O2 (stereo not drawn) [TS-P3C1]	–	–	–	–	0.13	118	−9.8	–	–
Cc1c(C)c2c(c(C)c1OC(=O)CCC(=O)OCC1CCN(CCSSCCN3CCC(COC(=O)CCC(=O)Oc4c(C)c(C)c5c(c4C)CCC(C)(CCCC(C)CCCC(C)CCCC(C)C)O5)CC3)CC1)CCC(C)(CCCC(C)CCCC(C)CCCC(C)C)O2 (stereo not drawn) [TS-P4C1]	–	–	–	–	0.13	113	−11.9	highest knockdown effect	–
Cc1c(C)c2c(c(C)c1OC(=O)CCC(=O)OCCC1CCN(CCSSCCN3CCC(CCOC(=O)CCC(=O)Oc4c(C)c(C)c5c(c4C)CCC(C)(CCCC(C)CCCC(C)CCCC(C)C)O5)CC3)CC1)CCC(C)(CCCC(C)CCCC(C)CCCC(C)C)O2 (stereo not drawn) [TS-P4C2]	–	–	–	–	0.07	125	−8.5	highest knockdown effect	–
Cc1c(C)c2c(c(C)c1OC(=O)CCC(=O)OCCCC1CCN(CCSSCCN3CCC(CCCOC(=O)CCC(=O)Oc4c(C)c(C)c5c(c4C)CCC(C)(CCCC(C)CCCC(C)CCCC(C)C)O5)CC3)CC1)CCC(C)(CCCC(C)CCCC(C)CCCC(C)C)O2 (stereo not drawn) [TS-P4C3]	–	–	–	–	0.09	123	−6.6	highest knockdown effect	–
Cc1c(C)c2c(c(C)c1OC(=O)CCC(=O)NCCCN(C)CCSSCCN(C)CCCNC(=O)CCC(=O)Oc1c(C)c(C)c3c(c1C)CCC(C)(CCCC(C)CCCC(C)CCCC(C)C)O3)CCC(C)(CCCC(C)CCCC(C)CCCC(C)C)O2 (stereo not drawn) [TSamide-C3M]	–	–	–	–	0.21	93	7.0	–	weak positive charge
